Measured values taken from publication PMC5463734, “Structure-guided optimization of quinoline inhibitors of Plasmodium N-myristoyltransferase” (MedChemComm, 2016).
“And” between values parts separate entries of the source, which are not always exact repeats. Equal values may be shown once. Read-outs that look alike come from different tables or passages of the source.

Assays:
[1] = target: T1, recombinant P. falciparum NMT (PfNMT) (Plasmodium falciparum, UniProt Q9U419); assay: fluorogenic 96-well plate enzymatic assay for PfNMT activity; format: biochemical; conditions: for Ki: recombinant enzyme, mean ± SD from duplicates, Ki app from IC50 by Cheng-Prusoff; for totally inactive on PfNMT up to: highest concentration without activity
T1 sequence (Q9U419 1-410): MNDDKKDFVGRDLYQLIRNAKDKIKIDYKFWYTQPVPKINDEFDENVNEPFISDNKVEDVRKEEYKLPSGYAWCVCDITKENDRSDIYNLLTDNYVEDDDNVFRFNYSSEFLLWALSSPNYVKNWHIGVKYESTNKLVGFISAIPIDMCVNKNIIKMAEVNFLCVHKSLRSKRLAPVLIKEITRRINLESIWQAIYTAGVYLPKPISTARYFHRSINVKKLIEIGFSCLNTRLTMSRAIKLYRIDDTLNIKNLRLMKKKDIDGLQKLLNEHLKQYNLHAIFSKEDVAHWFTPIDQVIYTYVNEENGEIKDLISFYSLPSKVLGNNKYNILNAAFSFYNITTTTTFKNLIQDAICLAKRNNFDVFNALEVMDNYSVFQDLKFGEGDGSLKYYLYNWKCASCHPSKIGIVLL
Description: (§1) The only residue in the inhibitor-binding pocket that differs between these NMTs is Tyr334 (Pv numbering), which is replaced by a phenylalanine in PfNMT.
(§2) Final compounds were tested using a previously described fluorogenic 96-well plate assay for PvNMT,2 PfNMT3 and […]
(§3) nonlinear regression fitting using GraFit 7.0 (Erithacus Software Ltd., U.K.). Apparent inhibition constants, Kiapp, were calculated from experimental IC50 using Cheng-Prussof equation.5

[2] = target: T2, recombinant H. sapiens NMT isoform 2 (HsNMT2) (Homo sapiens, UniProt O60551); assay: fluorogenic 96-well plate enzymatic assay for HsNMT2 activity; format: biochemical; conditions: for Ki: recombinant enzyme, mean ± SD from duplicates, Ki app from IC50 by Cheng-Prusoff
T2 sequence (O60551 1-498): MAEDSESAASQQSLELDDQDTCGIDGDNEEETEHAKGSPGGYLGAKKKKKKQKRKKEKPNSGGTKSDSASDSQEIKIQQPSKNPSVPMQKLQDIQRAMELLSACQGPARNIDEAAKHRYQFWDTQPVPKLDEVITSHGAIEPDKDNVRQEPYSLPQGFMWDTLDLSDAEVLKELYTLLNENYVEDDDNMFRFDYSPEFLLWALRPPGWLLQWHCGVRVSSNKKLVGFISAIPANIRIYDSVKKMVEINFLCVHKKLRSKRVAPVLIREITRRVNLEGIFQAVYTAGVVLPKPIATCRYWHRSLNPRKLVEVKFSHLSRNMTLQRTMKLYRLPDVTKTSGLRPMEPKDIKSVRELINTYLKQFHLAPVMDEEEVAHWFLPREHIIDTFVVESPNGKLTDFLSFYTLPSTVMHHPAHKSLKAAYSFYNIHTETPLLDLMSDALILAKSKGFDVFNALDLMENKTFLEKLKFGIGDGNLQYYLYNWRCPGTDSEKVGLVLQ
Description: as §2, §3

[3] = target: T3, recombinant H. sapiens NMT isoform 1 (HsNMT1) (Homo sapiens, UniProt P30419); assay: fluorogenic 96-well plate enzymatic assay for HsNMT1 activity; format: biochemical; conditions: for Ki: recombinant enzyme, mean ± SD from duplicates, Ki app from IC50 by Cheng-Prusoff
T3 sequence (P30419 1-496): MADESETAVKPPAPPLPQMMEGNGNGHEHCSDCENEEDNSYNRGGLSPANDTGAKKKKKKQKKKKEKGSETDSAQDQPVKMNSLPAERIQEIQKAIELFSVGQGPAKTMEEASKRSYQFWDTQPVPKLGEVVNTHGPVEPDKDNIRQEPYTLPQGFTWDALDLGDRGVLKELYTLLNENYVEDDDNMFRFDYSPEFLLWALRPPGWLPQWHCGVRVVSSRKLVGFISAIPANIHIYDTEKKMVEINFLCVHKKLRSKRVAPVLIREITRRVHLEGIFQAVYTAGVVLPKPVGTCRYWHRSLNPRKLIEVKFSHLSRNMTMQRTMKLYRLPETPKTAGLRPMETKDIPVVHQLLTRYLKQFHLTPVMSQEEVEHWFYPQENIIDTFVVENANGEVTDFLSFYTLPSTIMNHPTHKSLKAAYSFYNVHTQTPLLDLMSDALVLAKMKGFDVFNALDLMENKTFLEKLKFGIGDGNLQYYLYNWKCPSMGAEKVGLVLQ
Description: as §2, §3

[4] = target: T4, recombinant P. vivax NMT (PvNMT) (Plasmodium vivax, UniProt A5K1A2); assay: biochemical; format: biochemical; conditions: for LipE: lipophilic efficiency, LipE = –log(Ki) – clog P, based on PvNMT data; for Ki: recombinant enzyme, mean ± SD from duplicates, Ki app from IC50 by Cheng-Prusoff
T4 sequence (A5K1A2 1-410): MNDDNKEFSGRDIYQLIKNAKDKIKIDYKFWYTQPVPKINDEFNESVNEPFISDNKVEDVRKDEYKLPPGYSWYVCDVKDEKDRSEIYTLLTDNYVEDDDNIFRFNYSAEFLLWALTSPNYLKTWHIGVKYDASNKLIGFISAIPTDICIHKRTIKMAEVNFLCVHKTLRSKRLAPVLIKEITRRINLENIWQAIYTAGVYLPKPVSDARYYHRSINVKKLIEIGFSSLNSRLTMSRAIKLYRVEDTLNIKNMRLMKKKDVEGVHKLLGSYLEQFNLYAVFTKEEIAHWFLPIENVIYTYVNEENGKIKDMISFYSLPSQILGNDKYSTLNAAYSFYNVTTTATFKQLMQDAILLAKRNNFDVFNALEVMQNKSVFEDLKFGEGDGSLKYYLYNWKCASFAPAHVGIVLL
Description: as §1, §2, §3

[5] = solubility in assay buffer; conditions: could not be evaluated
[6] = target: T4, recombinant P. vivax NMT (PvNMT); set-up: method as in PMID 22439843; conditions: recombinant enzyme; read-out: Ki app PvNMT; cited from earlier work
[7] = stability in phosphate buffered solutions used for enzymatic assay; format: physicochemical
Source text: It is well known that 2-cyanoethylthioethers can be cleaved in the presence of weak bases such as ammonia through a retro-Michael reaction.[27]

Row | SMILES | Ki ([1]; read-out: Ki app PfNMT) [µM] | Ki [2] [µM] | Ki [3] [µM] | LipE [4] | Ki ([4]; read-out: Ki app PvNMT) [µM] | also measured
1 | CCSc1c(C(=O)NCCO)cnc2ccc(OCc3ccccc3)cc12 [Compound 18] | 8 ± 3.98 | > 10 | > 10 | 2.36 | 2.84 ± 0.38 | 
2 | CCSc1c(C(=O)Nc2ccccc2)cnc2ccc(OCc3ccccc3)cc12 [Compound 16] |  |  |  |  |  | solubility [5]: poorly soluble
3 | CCOC(=O)c1cnc2ccc(OCc3ccc(NCCN)nc3)cc2c1SCC [Compound 24] | 1.25 ± 0.08 | 0.41 ± 0.07 | 0.05 ± 0.01 | 3.57 | 0.28 ± 0.02 | 
4 | CCCSc1c(C(=O)OCC)cnc2ccc(OCc3ccccc3)cc12 [Compound 5] | 1.1 ± 0.08 | > 10 | 3.36 ± 0.37 | 0.22 | 2.08 ± 0.14 | fold improvement in activity versus PfNMT ([1]; n-propyl thioether vs 2-cyanoethyl thioether): > 10 fold
5 | CCSc1c(CO)cnc2ccc(OCc3ccccc3)cc12 [Compound 11] | > 10 | > 10 | > 10 | 1.57 | 4.19 ± 0.55 | 
6 | CCOC(=O)c1cnc2ccc(OCc3ccccc3)cc2c1[S+]([O-])CC (stereo not drawn) [Compound 9] | 5.65 ± 1.24 | > 10 | 3.6 ± 0.3 | 2.46 | 1.75 ± 0.12 | 
7 | CCOCc1cnc2ccc(OCc3ccccc3)cc2c1SCC [Compound 12] | 2.69 ± 0.51 | > 10 | > 10 | 0.72 | 2.92 ± 0.15 | 
8 | CCOC(=O)c1cnc2ccc(OCc3ccccc3)cc2c1SCCC#N [Compound 4] | > 10 |  | > 10 | 1.90 | 0.55 ± 0.06 | totally inactive on PfNMT up to [1]: > 100 µM; fold improvement in activity compared to the original methoxy compound ([4]; 6-benzyloxy vs 6-methoxy compound 1): 8 fold
9 | CCOC(=O)c1cnc2ccc(OCc3ccccc3)cc2c1SC(C)C [Compound 6] |  | > 10 | 4.84 ± 0.64 |  |  | Ki ([1]; Ki app PfNMT): 1.99 ± 0.3 µM
10 | CCOC(=O)c1cnc2ccc(OC)cc2c1SCCC#N [Compound 1, ethyl 4-((2-cyanoethyl)thio)-6-methoxyquinoline-3-carboxylate] |  |  |  |  |  | Ki [6]: 4.7 µM and 4.74 µM; stability in phosphate buffered solutions [7]: fully stable
11 | CCOC(=O)c1cnc2ccc(OCc3ccccc3)cc2c1SC [Compound 8] | 5.9 ± 0.6 |  |  | 0.69 | 4.14 ± 0.41 | 
12 | CCSc1c(C(=O)N(CC)CC)cnc2ccc(OCc3ccccc3)cc12 [Compound 14] | 0.94 ± 0.09 | 3.53 ± 0.4 | 1.02 ± 0.13 | 1.80 | 0.41 ± 0.06 | 
13 | CCSc1c(C(=O)N2CCOCC2)cnc2ccc(OCc3ccccc3)cc12 [Compound 19] |  | 0.59 ± 0.05 |  |  |  | Ki ([1]; Ki app PfNMT): 0.33 ± 0.02 µM; Ki ([4]; Ki app PvNMT): 0.2 ± 0.02 µM
14 | CCCCc1c(C)nc2ccc(OC)cc2c1SCCC#N [MRT00057965, 3-butyl-4-((2-cyanoethyl)thio)-6-methoxy-2-methylquinoline] |  |  |  |  |  | totally inactive on PfNMT up to [1]: > 100 µM
15 | CCNC(=O)c1cnc2ccc(OCc3ccccc3)cc2c1SCC [Compound 13] | 0.96 ± 0.11 | > 10 | 1.05 ± 0.115 | 2.46 | 0.34 ± 0.05 | selectivity versus HsNMT2 ([2]; relative to PvNMT): 30 fold; selectivity versus HsNMT1 ([3]; relative to PvNMT): 3 fold
16 | CCSc1c(C(=O)N2CCCC2)cnc2ccc(OCc3ccccc3)cc12 [Compound 15] | 1.52 ± 0.29 | > 10 | 1.36 ± 0.21 | 1.74 | 0.96 ± 0.13 | 
17 | CCOC(=O)c1cnc2ccc(OCc3ccccc3)cc2c1S(=O)(=O)CC [Compound 10] | > 10 | > 10 | > 10 | 2.34 | 1.78 ± 0.47 | 
18 | CCSc1c(C(=O)Nc2nccs2)cnc2ccc(OCc3ccccc3)cc12 [Compound 17] |  |  |  |  |  | solubility [5]: poorly soluble
19 | CCOC(=O)c1cnc2ccc(OCc3ccccc3)cc2c1SCC [Compound 7] | 0.67 ± 0.04 | 4.23 ± 0.53 | 1.56 ± 0.22 | 1.42 | 0.44 ± 0.05 | 
